Measured values as given in BindingDB's records for doi:10.1021/jm9805182 (University of Minnesota, 1999).

Experiments:
[1] = Mutant factor against mu-[K303E] with Opioid receptor kappa 1 for binding affinity
[2] = Mutant factor of the compound against mu-[K303E] with Opioid receptor kappa 1 for binding affinity

Structure (SMILES) | Ki [1] [pM] | Ki [2] [pM]
Oc1ccc2c3c1O[C@H]1c4[nH]c5c(c4C[C@@]4(O)[C@@H](C2)N(CC2CC2)CC[C@]314)C[C@@]1(O)[C@H]2Cc3ccc(O)c4c3[C@@]1(CCN2CC1CC1)[C@H]5O4 [C18130] | 770 | –
N#CN=C(N)Nc1ccc2[nH]c3c(c2c1)C[C@@]1(O)C2Cc4ccc(O)c5c4[C@@]1(CCN2CC1CC1)[C@H]3O5 [5'-[N-(N'-Cyano)guanidinyl]-17-cyclopropylmethyl-6,7-didehydro-4,5alpha-epoxy-3,14-dihydroxyindolo[2',3':6,7]morphinan] | 290 | –
NC(N)=Nc1ccc2[nH]c3c(c2c1)C[C@@]1(O)[C@H]2Cc4ccc(O)c5c4[C@@]1(CCN2CC1CC1)[C@H]3O5 | – | 60
